Test results from PMC2680961, “Homologous desensitization of signalling by the alpha (α) isoform of the human thromboxane A2 receptor: A specific role for nitric oxide signalling” (Biochimica et Biophysica Acta, 2007).
Substitutions are numbered along the chain they refer to. Where a name gives a salt, the structure may show the parent alone. Each block holds one compound with its values, some of them ahead of it.

Assays:
Format in all cases: cell-based
[1] = molecular target: T1, TPα (Homo sapiens, UniProt P21731); assay: Intracellular calcium mobilization, HEK.TPα cells; settings: for secondary U46619 [Ca2+]i response relative to primary response: TPα
T1 construct: expressed in transfected cells
T1 sequence (P21731 1-343): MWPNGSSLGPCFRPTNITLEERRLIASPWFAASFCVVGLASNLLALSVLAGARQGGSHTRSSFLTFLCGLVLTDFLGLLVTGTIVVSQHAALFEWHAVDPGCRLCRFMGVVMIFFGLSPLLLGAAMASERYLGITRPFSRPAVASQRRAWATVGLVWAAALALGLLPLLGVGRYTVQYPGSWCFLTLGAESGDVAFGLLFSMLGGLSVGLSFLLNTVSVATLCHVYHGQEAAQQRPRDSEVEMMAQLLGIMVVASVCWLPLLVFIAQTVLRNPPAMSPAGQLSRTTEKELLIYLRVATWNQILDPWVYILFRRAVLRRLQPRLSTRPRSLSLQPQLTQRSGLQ
Experimental: (§1) Measurement of intracellular calcium mobilization ([Ca^2+]i) in FURA2/AM preloaded HEK 293 cell lines (2 × 10^6 cells/dish), each transiently co-transfected with pADVA (10 μg), and pCMV:Gαq (25 μg), was carried out as previously described. To investigate the effect of GRK2/βARK1 on TP-mediated [Ca^2+]i mobilization, HEK.TPα or HEK.TPβ cells (2 × 10^6 cells/dish) were co-transfected with pADVA (10 μg), pCMV:Gαq (25 μg) along with pRK5:βARK1^495–689 (25 μg), encoding a dominant negative form of GRK2/βARK1[39]. Approximately 48 h post-transfection, cells were harvested by scraping, washed twice in ice-cold PBS and resuspended in HBSSHB (modified Ca^2+/Mg^2+-free Hank's buffered salt solution, containing […], pH 7.67, 0.1% bovine serum albumin (BSA)) buffer at 10^7 cells/ml and incubated in the dark with 5 μM FURA2/AM for 45 min at 37 °C. Cells were collected by centrifugation (900×g, 5 min), washed once in an equal volume of HBSSHB, and were finally resuspended in HBSSHB buffer at 10^7 cells/ml and kept at room temperature in the dark for 40 min. For each measurement of [Ca^2+]i mobilization, aliquots of cells were diluted to 0.825 × 10^6 cells/ml in HBSSHB, 1 mM CaCl2 and FURA2 fluorescence was recorded (2 ml aliquots of cells) at 37^ °C with gentle stirring with a Perkin Elmer-Cetus LS50-B spectrofluorometer at excitation wavelengths of 340 nm and 380 nm and emission wavelength of 510 nm, respectively.
[…] To assess agonist-mediated homologous desensitization, cells (0.825 × 10^6 cells/ml; 2 ml per assay) were stimulated with 1 μM U46619 (Primary stimulation) or, as a control, with the vehicle for 4 min; thereafter, cells were collected by centrifugation (900×g, 5 min); were washed twice in 2 ml HBSSHB, 1 mM CaCl2; and finally resuspended in 2 ml HBSSHB,1 mM CaCl2 and were left to recover over various time intervals (ranging from 0 to 60 min); thereafter, cells re-stimulated with 1 μM U46619 (Secondary stimulation) and changes in [Ca^2+]i mobilization were monitored as a function of time. To assess the role of protein kinase (PK) A, PKC or PKG on U46619-mediated desensitization of TPα signalling, cells were pre-incubated with the PKA inhibitor H-89 (10 μM), the PKC inhibitor GF 109203X (50 nM) or the PKG inhibitor KT 5823 (50 nM), for 15 min and respective kinase inhibitors were maintained throughout the primary/secondary U46619-stimulations and during the washes.
(§2) The vehicle had no effect on U46619-mediated [Ca^2+]i mobilization. Calibration of the signal was performed in each sample by adding 0.2% Triton X-100 to obtain the maximal fluorescence ratio (Rmax) and then 1 mM EGTA to obtain the minimal fluorescence ratio (Rmin). The ratio of the fluorescence at 340 nm to that at 380 nm is a measure of [Ca^2+]i, which assumes a Kd of 225 nM Ca^2+ for FURA2/AM. The results presented in the figures are representative data from at least three or four independent experiments and are plotted as changes in Ca^2+i mobilized (Δ[Ca^2+]i (nM)) as a function of time (s) upon ligand stimulation. Changes in [Ca^2+]i mobilization were determined by measuring peak rises in [Ca^2+]i mobilized (Δ[Ca^2+]i) and were calculated as mean changes in Δ[Ca^2+]i ± S.E.M. (nM).

[2] = molecular target: T2, TP^Δ328 (Homo sapiens, UniProt P21731); assay: Intracellular calcium mobilization, HEK.TP^Δ328 cells; settings: HEK.TP^Δ328
T2 construct: expressed in transfected cells
T2 sequence (P21731 1-328): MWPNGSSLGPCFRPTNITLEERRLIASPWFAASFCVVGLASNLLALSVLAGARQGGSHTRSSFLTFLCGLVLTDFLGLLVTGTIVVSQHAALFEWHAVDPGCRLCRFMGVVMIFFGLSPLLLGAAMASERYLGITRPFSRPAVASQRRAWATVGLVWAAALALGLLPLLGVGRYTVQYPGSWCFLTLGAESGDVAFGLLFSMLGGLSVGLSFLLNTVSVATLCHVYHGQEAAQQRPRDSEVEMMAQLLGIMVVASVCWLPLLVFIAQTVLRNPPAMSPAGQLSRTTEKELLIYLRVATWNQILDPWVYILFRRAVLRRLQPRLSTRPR
Experimental: as §1
(§3) Cells were stimulated with the TP agonist U46619 (1 μM) and changes in [Ca^2+]i mobilization were monitored as a function of time. To assess agonist-mediated homologous desensitization, cells (0.825 × 10^6 cells/ml; 2 ml per assay) were stimulated with 1 μM U46619 (Primary stimulation) or, as a control, with the vehicle for 4 min; thereafter, cells were collected by centrifugation (900×g, 5 min); were washed twice in 2 ml HBSSHB, 1 mM CaCl2; and finally resuspended in 2 ml HBSSHB,1 mM CaCl2 and were left to recover over various time intervals (ranging from 0 to 60 min); thereafter, cells re-stimulated with 1 μM U46619 (Secondary stimulation) and changes in [Ca^2+]i mobilization were monitored as a function of time. To assess the role of protein kinase (PK) A, PKC or PKG on U46619-mediated desensitization of TPα signalling, cells were pre-incubated with the PKA inhibitor H-89 (10 μM), the PKC inhibitor GF 109203X (50 nM) or the PKG inhibitor KT 5823 (50 nM), for 15 min and respective kinase inhibitors were maintained throughout the primary/secondary U46619-stimulations and during the washes.
as §2

[3] = molecular target: T1, TPα; assay: Agonist-mediated TP phosphorylation in whole cells, HEK.TPα
Experimental: (§4) Agonist-mediated TP phosphorylation in whole cells (1.8–2 × 10^6 cells/10 cm dish) was performed essentially as previously described. Briefly, cells were transiently co-transfected with pADVA (10 μg), pCMV:Gαq (25 μg) plus pcDNA:βArrestin2 (25 μg) approximately 48 h prior to labelling. Thereafter, cells were washed once in phosphate-free DMEM, 10% dialysed FBS and were metabolically labelled for 60 min in the same medium (2 ml/10 cm dish) containing 100 μCi/ml [^32P] orthophosphate (8000–9000 Ci/mmol) at 37 °C, 5% CO2. Where appropriate, the PKG kinase inhibitor KT 5823 (50 nM) or its vehicle was added during the labelling period. Thereafter, U46619 (1 μM) or an equivalent volume of vehicle (0.01% ethanol in HBS; 20 μl) were added and cells were incubated for 10 min at 37 °C, 5% CO2. Reactions were terminated by transferring the dishes to ice and aspirating the labelled medium and HA-epitope tagged TP receptors were processed and immunoprecipitated using the anti-HA 101R antibody as previously described. Electroblots were then exposed to Xomat XAR (Kodak) film to detect ^32P-labelled proteins. Thereafter, blots were subject to phosphorimage analysis, and the intensities of agonist-induced phosphorylation were expressed in arbitrary units relative to basal (vehicle-stimulated) levels. In parallel experiments, cells were incubated under identical conditions in the absence of [^32P] orthophosphate; HA-tagged TP receptors were immunoprecipitated from the same cell lines using the anti-HA 101R antibody and immunoblots were screened using the anti-HA 3F10 horseradish peroxidase-conjugated antibody.

[4] = molecular target: T3, TPα^S331A (Homo sapiens, UniProt P21731, S331A); assay: Agonist-mediated TP phosphorylation in whole cells, HEK.TPα^S331A
T3 construct: expressed in transfected cells
T3 sequence (P21731 1-343 S331A): T1 sequence (P21731 1-343) with S331A
Experimental: as §4

[5] = molecular target: T4, TPβ (Homo sapiens, UniProt P21731); assay: Intracellular calcium mobilization, HEK.TPβ cells; settings: for effect of inhibitor on U46619-induced [Ca2+]i mobilization by TPβ: inhibitor pre-incubated 15 min, primary/secondary U46619 stimulation
T4 construct: expressed in transfected cells

[6] = molecular target: T4, TPβ; assay: Intracellular calcium mobilization, HEK.TPβ cells
Experimental: as §1, §3, §2

[7] = 1 μM U46619 plus 50 nM KT 5823 pre-incubation

T4 sequence (P21731 1-407 isoform P21731-2): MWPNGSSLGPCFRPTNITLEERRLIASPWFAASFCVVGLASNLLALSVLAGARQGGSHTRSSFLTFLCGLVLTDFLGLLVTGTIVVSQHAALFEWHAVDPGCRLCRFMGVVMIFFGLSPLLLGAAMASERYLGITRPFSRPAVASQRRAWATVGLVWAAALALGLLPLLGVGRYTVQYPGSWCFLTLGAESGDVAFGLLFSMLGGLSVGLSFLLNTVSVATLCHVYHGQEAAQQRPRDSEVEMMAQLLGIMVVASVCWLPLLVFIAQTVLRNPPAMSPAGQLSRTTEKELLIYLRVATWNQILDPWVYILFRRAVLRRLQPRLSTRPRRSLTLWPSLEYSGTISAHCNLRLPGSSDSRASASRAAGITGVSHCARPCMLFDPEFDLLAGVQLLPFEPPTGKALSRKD

- Δ[Ca2+]i, U46619-induced ([1]; HEK.TPα, primary 1 μM U46619 in presence of 50 nM GF 109203X): 250 ± 12 nM
- Δ[Ca2+]i, U46619-induced ([1]; HEK.TPα, secondary 1 μM U46619 at 15 min in presence of 50 nM GF 109203X): 90 ± 8 nM
- secondary U46619 [Ca2+]i response relative to primary response ([1]; in presence of GF 109203X (50 nM)): 36%
- Δ[Ca2+]i, U46619-induced ([2]; primary 1 μM U46619 in presence of 50 nM GF 109203X): 200 ± 9.8 nM
- Δ[Ca2+]i, U46619-induced ([2]; secondary 1 μM U46619 at 15 min in presence of 50 nM GF 109203X): 200 ± 12 nM
Compound: CN(C)CCCn1cc(C2=C(c3c[nH]c4ccccc34)C(=O)NC2=O)c2ccccc21 [GF 109203X, 2-[1-(3-dimethylaminopropyl)-1H-indol-3-yl]-3-(1H-indol-3-yl)-maleimide]

- effect of inhibitor on [Ca2+]i mobilization in response to primary or secondary U46619 ([1]; HEK.TPα, H-89 10 μM pre-incubation): no significant effect
- Δ[Ca2+]i, U46619-induced ([1]; HEK.TPα, primary 1 μM U46619 in presence of 10 μM H-89): 220 ± 9.2 nM
- Δ[Ca2+]i, U46619-induced ([1]; HEK.TPα, secondary 1 μM U46619 at 15 min in presence of 10 μM H-89): 0 nM
- effect of inhibitor on [Ca2+]i mobilization in response to primary or secondary U46619 ([2]; H-89 10 μM pre-incubation): no significant effect
- Δ[Ca2+]i, U46619-induced ([2]; primary 1 μM U46619 in presence of 10 μM H-89): 180 ± 10 nM
- Δ[Ca2+]i, U46619-induced ([2]; secondary 1 μM U46619 at 15 min in presence of 10 μM H-89): 165 ± 8 nM
Compound: Cl.Cl.O=S(=O)(NCCNCC=Cc1ccc(Br)cc1)c1cccc2cnccc12 [H-89, N-[2-((p-bromocinnamyl)amino)ethyl]-5-isoquino-linesulfonamide, 2HCL]

Compound: COC(=O)[C@@]1(OC)C[C@H]2O[C@]1(C)n1c3ccccc3c3c4c(c5c6ccccc6n2c5c31)C(=O)N(C)C4 [KT 5823]
- U46619-mediated TPα phosphorylation relative to basal (vehicle) [3, 7]: 2 fold
- reduction of agonist-induced TPα phosphorylation ([3]; pre-incubation with KT 5823, 1 μM U46619): 2.5 fold
- Δ[Ca2+]i, U46619-induced ([1]; HEK.TPα, primary 1 μM U46619 in presence of 50 nM KT 5823): 160 ± 7.9 nM
- Δ[Ca2+]i, U46619-induced ([1]; HEK.TPα, secondary 1 μM U46619 at 15 min in presence of 50 nM KT 5823): 60 ± 7 nM
- secondary U46619 [Ca2+]i response relative to primary response ([1]; in presence of KT 5823 (50 nM)): approximately 38%
- U46619-mediated TPα^S331A phosphorylation relative to basal (vehicle) [4, 7]: 1.5 fold
- effect on agonist-induced phosphorylation of TPα^S331A ([4]; preincubation with KT 5823): not significantly affected
- effect of inhibitor on U46619-induced [Ca2+]i mobilization by TPβ [5]: no significant effect
- Δ[Ca2+]i, U46619-induced ([5]; primary 1 μM U46619 in presence of 50 nM KT 5823): 170 ± 25 nM
- Δ[Ca2+]i, U46619-induced ([5]; secondary 1 μM U46619 at 15 min in presence of 50 nM KT 5823): 0 nM

- Δ[Ca2+]i, U46619-induced ([1]; HEK.TPα, primary 1 μM U46619 in presence of 1 μM L-NAME): 200 ± 9 nM
- Δ[Ca2+]i, U46619-induced ([1]; HEK.TPα, secondary 1 μM U46619 at 15 min in presence of 1 μM L-NAME): 80 ± 5.9 nM
- effect of inhibitor on U46619-induced [Ca2+]i mobilization by TPβ [5]: no significant effect
- Δ[Ca2+]i, U46619-induced ([6]; primary 1 μM U46619 in presence of 1 μM L-NAME): 220 ± 40 nM
- Δ[Ca2+]i, U46619-induced ([6]; secondary 1 μM U46619 at 15 min in presence of 1 μM L-NAME): 0 nM
Compound: COC(=O)[C@@H](N)CCCNC(N)=N[N+](=O)[O-] [L-NAME, NG-Nitro-L-arginine Methyl Ester, Hydrochloride]

- Δ[Ca2+]i, U46619-induced ([1]; HEK.TPα, primary 1 μM U46619 in presence of 1 μM LY 83583): 210 ± 12 nM
- Δ[Ca2+]i, U46619-induced ([1]; HEK.TPα, secondary 1 μM U46619 at 15 min in presence of 1 μM LY 83583): 58 ± 6 nM
- effect of inhibitor on U46619-induced [Ca2+]i mobilization by TPβ [5]: no significant effect
- Δ[Ca2+]i, U46619-induced ([6]; primary 1 μM U46619 in presence of 1 μM LY 83583): 185 ± 26 nM
- Δ[Ca2+]i, U46619-induced ([6]; secondary 1 μM U46619 at 15 min in presence of 1 μM LY 83583): 0 nM
Compound: O=C1C(Nc2ccccc2)=CC(=O)c2ncccc21 [LY 83583, 6-Anilino-5,8-quinolinequinone]
